# From patent EP0552624B1, “Use of 9-cis retinoic acid, salts and esters thereof for the treatment of epithelial tumors” (F. HOFFMANN-LA ROCHE AG, priority 1992, dated 1993)
# Key:
# [1] = tested on: SKv-l1, a transformed keratinocyte cell line containing human papilloma virus 16 (HPV 16); test: Proliferation assay by direct cell counting on HPV 16-containing transformed keratinocytes; type: cell-based; settings: 48 h, 10^-6 M, incubated for 2 days, p < 0.001, read-out: inhibited proliferation (growth inhibition in % compared to controls)
# Protocol: 9-cis retinoic acid was further investigated on its effect on other transformed cell lines. A proliferation assay was performed on a virus containing cell line. SKv-l1, a transformed keratinocyte cell line containing human papilloma virus 16 (HPV 16) was tested with regard to inhibition of proliferation by 9-cis retinoic acid in two experiments with four replicates. 5·10^4 cells/well were plated in Eagle's medium and incubated for 2 days. Direct cell counting with a hemocytometer was done before and after incubation with the retinoid in a concentration of 10^-6 M and in corresponding DMSO controls. Growth inhibition was expressed in % compared to controls.
# HeLa (tumorigenic) [2] = test: Tumor cell induced angiogenesis, in vitro preincubation of cells, HeLa; type: in vivo; settings: HeLa cells preincubated in vitro 48 hours with 10^-7 M, injected intradermally into untreated Balb/c mice; controls 32.5±2.7
# Protocol: (§1) The angiogenesis assays have been, previously described (Sidky YA and Auerbach R. Lymphocyte induced angiogenesis: A quantitative and sensitive assay of the graft-vs-host reaction. J. exp Med 141: 1084-1100, 1975. Majewski S et al. Inhibition of tumour-induced angiogenesis by systemically administered protamine sulphate. Int J Cancer 33: 831-833, 1984). Two assays were used in testing 9-cis retinoic acid. In the first assay the retinoid was added in vitro to the cell line before being injected into mice. In the second assay the mice were injected intraperitoneally with the retinoid in vivo before the tumor cell line was injected intradermally.
# (§2) Method: Cells of two tumorigenic cell lines, SKv-e2 and HeLa, and of a non-tumorigenic cell line, SKv-e1 were preincubated in vitro for 48 hours with 9-cis retinoic acid at a concentration of 10^-7 M followed by cell counting and washing in TC 199 medium. The cell concentration was adjusted to 2·10^5 viable cells per 0.1 ml of medium and injected intradermally into X-ray irradiated, but not retinoid-treated Balb/c mice. Controls were injected with tumor cells preincubated with DMSO. The angiogenic effect was determined according to the methods referred to above.
# SKv-e2 (tumorigenic) [3] = test: Cell induced angiogenesis, in vivo pretreatment of mice, SKv-e2; set-up: species or system Balb/c mice; settings: mice pretreated in vivo intraperitoneally before intradermal cell injection, control 31.3 ± 2.7
# Protocol: as §1
# SKv-12 (Tumorigenic) = test: Cell induced angiogenesis, in vivo pretreatment of mice, SKv-12; set-up: species or system Balb/c mice; settings: mice pretreated in vivo intraperitoneally before intradermal cell injection, control 30.3 ± 2.6
# Protocol: as §1
# SKv-e2 (tumorigenic) [4] = test: Tumor cell induced angiogenesis, in vitro preincubation of cells, SKv-e2; type: in vivo; settings: SKv-e2 cells preincubated in vitro 48 hours with 10^-7 M, injected intradermally into untreated Balb/c mice; controls 34.7±3.7
# Protocol: as §1, §2
# HeLa (tumorigenic) [5] = test: Cell induced angiogenesis, in vivo pretreatment of mice, HeLa; set-up: species or system Balb/c mice; settings: mice pretreated in vivo intraperitoneally before intradermal cell injection, control 28.3 ± 0.8
# Protocol: as §1
# SKv-e1 (non-tumorigenic) [6] = test: Cell induced angiogenesis, in vivo pretreatment of mice, SKv-e1; set-up: species or system Balb/c mice
# Protocol: as §1
# [7] = Acute toxicity, single intraperitoneal dose; type: in vivo, Füllinsdorf albino mice; settings: single i.p. dose in rape oil
# Protocol: Acute Toxicity was determined in Füllinsdorf albino mice. 9-cis retinoic acid was suspended in rape oil and administered intraperitoneally in one single dose. The lethal dose (LD) of 10%, 50% and 90% of the mice was recorded 24 hours, 10 days and 20 days after the application of the single dose. For each group 10 mice were used.
# SKv-e1 (non-tumorigenic) [8] = test: Cell induced angiogenesis, in vitro preincubation of cells, SKv-e1; type: in vivo, Balb/c mice
# Protocol: as §1, §2
structure (smiles),measurement,setting,value
"CC(=CC=C/C(C)=C/C(=O)O)/C=C/C1=C(C)CCCC1(C)C (stereo in doubt) [9-cis retinoic acid, (E,Z,E,E)-3,7-dimethyl-9-[2,6,6-trimethyl-1-cyclohexen-1-yl]-2,4,6,8-nonatetraenoic acid]",inhibition at 1 µM,[1],32.4%
same,Mean number of blood vessels,HeLa (tumorigenic) [2],23.8±2.9 p < 0.001
same,Mean number of blood vessels,SKv-e2 (tumorigenic) [3],19.7 ± 0.6
same,Mean number of blood vessels,SKv-12 (Tumorigenic),15.3 ± 1.0
same,Mean number of blood vessels,SKv-e2 (tumorigenic) [4],23.6±4.2 p < 0.001
same,Mean number of blood vessels,HeLa (tumorigenic) [5],16.3 ± 1.8
same,Mean number of blood vessels,"SKv-e1 (non-tumorigenic) [6]; SKv-e1, mice pretreated in vivo intraperitoneally before intradermal cell injection, control 19.7 ± 3.7",24.3 ± 5.6
same,anti-angiogenic effect with a non-tumorigenic cell line,"SKv-e1 (non-tumorigenic) [6]; mice treated in vivo, result in words",no anti-angiogenic effect
same,LD50 at 24 hours,"[7]; Füllinsdorf albino, mouse, in vivo, ip, recorded 24 hours after",> 4000 mg/kg
same,LD50 at 10 days,"[7]; Füllinsdorf albino, mouse, in vivo, ip, recorded 10 days after",1400 mg/kg
same,LD50 at 20 days,"[7]; Füllinsdorf albino, mouse, in vivo, ip, recorded 20 days after",1400 mg/kg
same,LD 10%,[7]; recorded 24 hours after,> 4000 mg/kg
same,LD 90%,[7]; recorded 24 hours after,> 4000 mg/kg
same,LD 10%,[7]; recorded 10 days after,1200 mg/kg
same,LD 90%,[7]; recorded 10 days after,1800 mg/kg
same,LD 10%,[7]; recorded 20 days after,1200 mg/kg
same,LD 90%,[7]; recorded 20 days after,1800 mg/kg
same,Mean number of blood vessels,"SKv-e1 (non-tumorigenic) [8]; SKv-e1 cells preincubated in vitro 48 hours with 10^-7 M, injected intradermally into untreated Balb/c mice, controls 26.3±1.5",25.6±2.2 p < 0.1
same,angiogenesis induced by the non-tumorigenic subline,"SKv-e1 (non-tumorigenic) [8]; in vitro preincubation of SKv-e1 cells, result in words",did not inhibit angiogenesis
